Data published in paper PMC5838106, “Cathelicidin promotes inflammation by enabling binding of self-RNA to cell surface scavenger receptors” (Scientific Reports, 2018).
Where no end group is shown, it is not given here.

Legend:
[1] = system: NHEKs; assay: Immunoblotting of TBK1-AKT-IRF3 pathway and p38 MAPK phosphorylation; type: cell-based, human; conditions: peptide 2.5 μM 10 minutes, then U1 RNA 2.5 μg/mL 30 minutes or 2 hours
Source text: Figure 2 Structure and cell binding of cathelicidin and dsRNA. (a) Structures of LL37, LL34, and LL34(I20P) bound to dsRNA were solved using SAXS. SAXS data is plotted as the scattering intensity I(q) vs. the momentum transfer vector q. LL34 (blue) and LL34(I20P) (green) condense dsRNA into square lattices with first peak positions of q10 = 0.167 Å^−1 and 0.170 Å^−1, respectively. Higher order Bragg reflections due to scattering of the square lattice of LL34 and LL34(I20P) are labeled for both complexes. In comparison, LL37 (magenta) condenses dsRNA into a columnar lattice with short-ranged order, with a first peak position of q1 = 0.172 Å^−1. (b) Linear fits of Bragg peak positions indicate that LL34-dsRNA (blue) and LL34(I20P)-dsRNA (green) complexes have inter-dsRNA spacings of 3.76 nm and 3.70 nm, respectively. Each reflection corresponding to the peaks in a for LL34 and LL34(I20P) are labeled. […]
NHEKs were lysed in a denaturing lysis buffer containing 20 mM HEPES pH 7.4, 250 mM NaCl, 2 mM EDTA, and 1% SDS supplemented with completed proteinase inhibitor cocktail as well as 50 mM sodium floride, 5mM N-ethylmaleimide, 100 μM hemin chloride to maximally preserve protein post-translational modifications as described previously. […] Protein concentrations were measured by BCA protein assay kit (Thermofisher). […]

[2] = system: Group A streptococcus (GAS); type: cell-based
Method: Figure 1 Inflammatory activity of cathelicidin can be dissociated from antimicrobial function (a) Transcriptomic analysis by RNASeq of primary cultures of normal human epidermal keratinocytes (NHEKs) treated with LL37 (2.5 μM) with or without U1 RNA (2.5 μg/mL) for 24 hours. Shown are gene sets induced > 2 fold over vehicle, and after treatment with LL37, U1 RNA, or the combination of LL37 + U1 RNA. (b) Gene Ontology analysis of gene sets from (a). The number of genes related to each biological process is indicated in parentheses. (c) Amino acid sequence of synthetic cathelicidin peptides used in this study. (d) Antimicrobial assay of cathelicidin peptides against group A streptococcus (GAS). GAS were incubated with various concentrations of each peptide (0–25 μM) for 6 hours, then surviving colonies counted after plating on Todd Hewitt Broth gel. (e) IFN-β1 mRNA abundance and (f) IL-6 mRNA abundance in NHEKs after treatment with cathelicidin peptides (2.5 μM) for 10 minutes, then stimulated with U1 RNA (2.5 μg/mL) for a further 6 hours. (n = 3). (g) IFN-β1 mRNA abundance and (h) IL-6 mRNA abundance in […] (PMA)-treated THP1 cells after treatment with cathelicidin peptides (3 μM) for 10 minutes, then stimulated with U1 RNA (12.5 μg/mL) overnight. (n = 3). Data presented are from one representative experiment of at least two independent experiments. […]

| Substance | phosphorylation in the TBK1-AKT-IRF3 pathway and p38 MAPK [1] | minimal bacteriocidal concentration (MBC) ([2]; 6 h) | antimicrobial activity against group A Streptococcus (GAS) ([2]; GAS incubated with peptide 0–25 μM for 6 hours, surviving colonies counted, Fig. 1d) |
| --- | --- | --- | --- |
| LLGDFFRKSKEKIGKEFKRIVQRIKDFLRNLVPR [LL34] | increased | ca. 5 uM | increased antimicrobial activity compared to LL37 |
| LL37 | increased | – | – |
